Laboratory results from patent US20240059698A1 (Accutar Biotechnology Inc., priority 2022, published 2024).

Assays:
Format in all cases: cell-based
HCC827 cells = test: Cell growth inhibition (CellTiter-Glo), HCC827; details: Homo sapiens, 72 h, 3 days
Method: 2. Cell Growth Inhibition for HCC827, HCC827-SVD, HCC827-ASV, HCC827-YVMA, and A431.
HCC827(ATCC), HCC827-SVD, HCC827-ASV, and HCC827-YVMA cells were seeded in 96-well plates at 5000 cells/well in 90 μL of RPMI growth medium containing 10% FBS and 1% Penicillin Streptomycin. A431 (ATCC) cells were seeded in 96-well plates at 5000 cells/well in 90 μL of DMEM growth medium containing 10% FBS and 1% Penicillin Streptomycin. Cells were incubated at 37° C. overnight and then administered with 10 μL 10× test compounds prepared in the growth medium at various concentrations. After administration of the compounds, cells were incubated at 37° C. for 3 days. Before the CellTiter-Glo assay, the plates were equilibrated at room temperature for approximately 30 minutes. 100 ul of CellTiter-Glo reagent (Promega) was added to each well. The plates were then incubated at room temperature for 10 minutes and luminescence was recorded by the EnSight® multimode plate reader (PerkinElmer). Table 7 listed selected compounds in cellular growth assay.

[1] = tested on: HCC827-SVD cells (human EGFR exon 20 insertion mutant D770_N771insSVD); test: Cell growth inhibition (CellTiter-Glo), HCC827-SVD; details: 72 h, 3 days
Procedure, shortened: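 Growth read by CellTiter-Glo luminescence after 3-day compound exposure at 37 °C. Engineered clonal HCC827 line (native EGFR deleted by CRISPR, mutant EGFR re-expressed) plated at 5000 cells/well in 10% FBS RPMI the night before dosing.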

[2] = tested on: HCC827-YVMA cells (human ERBB2 exon20 insertion mutant A775_G776ins YVMA); test: Cell growth inhibition (CellTiter-Glo), HCC827-YVMA; details: 72 h, HCC827-YVMA cells, 3 days, CellTiter-Glo, read-out: Cell growth inhibition, GI50 (nM) HCC827-YVMA
Procedure, shortened: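 Growth in RPMI with 10% FBS was measured by CellTiter-Glo luminescence after 3 days at 37 °C with test compounds across a concentration range. The single-clone HCC827 lines carry a lentiviral YVMA (ERBB2) or ASV (EGFR) exon 20 insertion, with endogenous EGFR removed via sgRNA/Cas9.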

Structure (SMILES)	GI50 (HCC827 cells) [nM]	GI50 [1] [nM]	GI50 [2] [nM]
C=CC(=O)N1CCC(c2c[nH]c3ncnc(Nc4ccc(OC5CCCN(S(=O)(=O)c6ccccc6)C5)cc4F)c23)CC1 (stereo in doubt) [Compound 124, (S)-1-(4-(4-((2-fluoro-4-((1-(phenylsulfonyl)piperidin-3-yl)oxy)phenyl)amino)-7H-pyrrolo[2,3-d]pyrimidin-5-yl)piperidin-1-yl)prop-2-en-1-one]	200 to 1000	200 to 1000	50 to 200
C=CC(=O)N1CCC(c2c[nH]c3ncnc(Nc4ccc(OCc5ccc(-c6ccccc6)nc5)cc4F)c23)CC1 [Compound 96, 1-(4-(4-((2-fluoro-4-((6-phenylpyridin-3-yl)methoxy)phenyl)amino)-7H-pyrrolo[2,3-d]pyrimidin-5-yl)piperidin-1-yl)prop-2-en-1-one]	200 to 1000	> 1000	200 to 1000
C=CC(=O)N1CCC(c2c[nH]c3ncnc(Nc4ccc(OCc5ccnc(-c6ccccc6)c5)cc4F)c23)CC1 [Compound 97, 1-(4-(4-((2-fluoro-4-((2-phenylpyridin-4-yl)methoxy)phenyl)amino)-7H-pyrrolo[2,3-d]pyrimidin-5-yl)piperidin-1-yl)prop-2-en-1-one]	200 to 1000	200 to 1000	200 to 1000
C=CC(=O)N1CCC(c2c[nH]c3ncnc(Nc4ccc(OCc5nc(C(F)(F)F)cs5)c(Cl)c4)c23)CC1 [Compound 103, 1-(4-(4-((3-chloro-4-((4-(trifluoromethyl)thiazol-2-yl)methoxy)phenyl)amino)-7H-pyrrolo[2,3-d]pyrimidin-5-yl)piperidin-1-yl)prop-2-en-1-one]	50 to 200	50 to 200	50 to 200
C=CC(=O)N1CCC(c2c[nH]c3ncnc(Nc4ccc(Oc5ccnc(Nc6ccccc6)c5)cc4F)c23)CC1 [Compound 104, 1-(4-(4-((2-fluoro-4-((2-(phenylamino)pyridin-4-yl)oxy)phenyl)amino)-7H-pyrrolo[2,3-d]pyrimidin-5-yl)piperidin-1-yl)prop-2-en-1-one]	200 to 1000	50 to 200	< 50
C=CC(=O)N1CCC(c2c[nH]c3ncnc(Nc4ccc(Oc5ccnc(N6CC(C(F)(F)F)C6)c5)cc4F)c23)CC1 [Compound 107, 1-(4-(4-((2-fluoro-4-((2-(3-(trifluoromethyl)azetidin-1-yl)pyridin-4-yl)oxy)phenyl)amino)-7H-pyrrolo[2,3-d]pyrimidin-5-yl)piperidin-1-yl)prop-2-en-1-one]	> 1000	200 to 1000	50 to 200
C=CC(=O)N1CCC(c2c[nH]c3ncnc(Nc4ccc(OCc5cnn(C(C)C)c5)c(Cl)c4)c23)CC1 [Compound 108, 1-(4-(4-((3-chloro-4-((1-isopropyl-1H-pyrazol-4-yl)methoxy)phenyl)amino)-7H-pyrrolo[2,3-d]pyrimidin-5-yl)piperidin-1-yl)prop-2-en-1-one]	200 to 1000	> 1000	> 1000
C=CC(=O)N1CCC(c2c[nH]c3ncnc(Nc4ccc(Oc5ccnc(NC6CCC6)c5)cc4F)c23)CC1 [Compound 109, 1-[4-[4-[4-[[2-(cycloButylamino)-4-pyridyl]oxy]-2-fluoro-anilino]-7H-pyrrolo[2,3-d]pyrimidin-5-yl]-1-piperidyl]prop-2-en-1-one]	< 50	50 to 200	< 50
C=CC(=O)N1CCC(c2c[nH]c3ncnc(Nc4ccc(OCc5ccc(C(F)(F)F)cn5)c(Cl)c4)c23)CC1 [Compound 112, 1-(4-(4-((3-chloro-4-((5-(trifluoromethyl)pyridin-2-yl)methoxy)phenyl)amino)-7H-pyrrolo[2,3-d]pyrimidin-5-yl)piperidin-1-yl)prop-2-en-1-one]	50 to 200	200 to 1000	50 to 200
C=CC(=O)N1CCC(c2n[nH]c3ncnc(Nc4ccc(Oc5ccnc(NC(=O)c6cnn(C)c6)c5)cc4F)c23)CC1 [Compound 196, N-(4-(4-((3-(1-acryloylpiperidin-4-yl)-1H-pyrazolo[3,4-d]pyrimidin-4-yl)amino)-3-fluorophenoxy)pyridin-2-yl)-1-methyl-1H-pyrazole-4-carboxamide]		200 to 1000	200 to 1000

Further lines, results first:

GI50 (HCC827 cells) [nM]	GI50 [1] [nM]	GI50 [2] [nM]	Structure (SMILES)
50 to 200	50 to 200	50 to 200	C=CC(=O)N1CCC(c2c[nH]c3ncnc(Nc4ccc(OCc5ccnc(-n6ccc(OC)n6)c5)cc4F)c23)CC1 [Compound 92, 1-(4-(4-((2-fluoro-4-((2-(3-methoxy-1H-pyrazol-1-yl)pyridin-4-yl)methoxy)phenyl)amino)-7H-pyrrolo[2,3-d]pyrimidin-5-yl)piperidin-1-yl)prop-2-en-1-one]
50 to 200	50 to 200	50 to 200	C=CC(=O)N1CCC(c2c[nH]c3ncnc(Nc4ccc(OCc5ccnc(Nc6ccccn6)c5)cc4F)c23)CC1 [Compound 93, 1-(4-(4-((2-fluoro-4-((2-(pyridin-2-ylamino)pyridin-4-yl)methoxy)phenyl)amino)-7H-pyrrolo[2,3-d]pyrimidin-5-yl)piperidin-1-yl)prop-2-en-1-one]
50 to 200	50 to 200	50 to 200	C=CC(=O)N1CCC(c2c[nH]c3ncnc(Nc4ccc(OCc5nccn5C)c(Cl)c4)c23)CC1 [Compound 94, 1-(4-(4-((3-chloro-4-((1-methyl-1H-imidazol-2-yl)methoxy)phenyl)amino)-7H-pyrrolo[2,3-d]pyrimidin-5-yl)piperidin-1-yl)prop-2-en-1-one]
< 50	< 50	< 50	C=CC(=O)N1CCC(c2c[nH]c3ncnc(Nc4ccc(OCc5ncco5)c(Cl)c4)c23)CC1 [Compound 95, 1-(4-(4-((3-chloro-4-(oxazol-2-ylmethoxy)phenyl)amino)-7H-pyrrolo[2,3-d]pyrimidin-5-yl)piperidin-1-yl)prop-2-en-1-one]
< 50	< 50	< 50	C=CC(=O)N1CCC(c2c[nH]c3ncnc(Nc4ccc(OCc5cccc(C)n5)c(Cl)c4)c23)CC1 [Compound 98, 1-(4-(4-((3-chloro-4-((6-methylpyridin-2-yl)methoxy)phenyl)amino)-7H-pyrrolo[2,3-d]pyrimidin-5-yl)piperidin-1-yl)prop-2-en-1-one]
50 to 200	50 to 200	< 50	C=CC(=O)N1CCC(c2c[nH]c3ncnc(Nc4ccc(OCc5ccc(OC)cn5)c(Cl)c4)c23)CC1 [Compound 99, 1-(4-(4-((3-chloro-4-((5-methoxypyridin-2-yl)methoxy)phenyl)amino)-7H-pyrrolo[2,3-d]pyrimidin-5-yl)piperidin-1-yl)prop-2-en-1-one]
< 50	< 50	< 50	C=CC(=O)N1CCC(c2c[nH]c3ncnc(Nc4ccc(OCc5cc(C#N)ccn5)c(Cl)c4)c23)CC1 [Compound 100, 2-((4-((5-(1-acryloylpiperidin-4-yl)-7H-pyrrolo[2,3-d]pyrimidin-4-yl)amino)-2-chlorophenoxy)methyl)isonicotinonitrile]
50 to 200	50 to 200	50 to 200	C=CC(=O)N1CCC(c2c[nH]c3ncnc(Nc4ccc(OCc5ccc(C#N)cn5)c(Cl)c4)c23)CC1 [Compound 101, 6-((4-((5-(1-acryloylpiperidin-4-yl)-7H-pyrrolo[2,3-d]pyrimidin-4-yl)amino)-2-chlorophenoxy)methyl)nicotinonitrile]
50 to 200	50 to 200	< 50	C=CC(=O)N1CCC(c2c[nH]c3ncnc(Nc4ccc(OCc5cn6ccccc6n5)c(Cl)c4)c23)CC1 [Compound 102, 1-(4-(4-((3-chloro-4-(imidazo[1,2-a]pyridin-2-ylmethoxy)phenyl)amino)-7H-pyrrolo[2,3-d]pyrimidin-5-yl)piperidin-1-yl)prop-2-en-1-one]
< 50	< 50	< 50	C=CC(=O)N1CCC(c2c[nH]c3ncnc(Nc4ccc(OCc5ccccn5)cc4F)c23)CC1 [Compound 105, 1-(4-(4-((2-fluoro-4-(pyridin-2-ylmethoxy)phenyl)amino)-7H-pyrrolo[2,3-d]pyrimidin-5-yl)piperidin-1-yl)prop-2-en-1-one]
< 50	< 50	< 50	C=CC(=O)N1CCC(c2c[nH]c3ncnc(Nc4ccc(OCc5ccccn5)c(Cl)c4F)c23)CC1 [Compound 106, 1-[4-[4-[3-chloro-2-fluoro-4-(2-pyridylmethoxy)anilino]-7H-pyrrolo[2,3-d]pyrimidin-5-yl]-1-piperidyl]prop-2-en-1-one]
< 50	< 50	< 50	C=CC(=O)N1CCC(c2c[nH]c3ncnc(Nc4ccc(OCc5ccncn5)c(Cl)c4)c23)CC1 [Compound 114, 1-(4-(4-((3-chloro-4-(pyrimidin-4-ylmethoxy)phenyl)amino)-7H-pyrrolo[2,3-d]pyrimidin-5-yl)piperidin-1-yl)prop-2-en-1-one]
